The values that follow are results of earlier work, collected in patent US10117939B2, “Pharmaceutical compositions comprising nebivolol or a nebivolol analogue” (MYLAN PHARMACEUTICALS ULC, priority 2007, dated 2018).

The conditions of the data set: as described in EP 0 744 946.

As for `Cl.O[C@H](CNC[C@@H](O)[C@H]1CCc2cc(F)ccc2O1)[C@@H]1CCc2cc(F)ccc2O1` [“micronized” nebivolol hydrochloride], the “Dissolution (in words)” value was “even worse than material in the normal crystalline form”.

As for `Cl.O[C@H](CNC[C@@H](O)[C@H]1CCc2cc(F)ccc2O1)[C@@H]1CCc2cc(F)ccc2O1` (relative stereo) [nebivolol hydrochloride, ((±))-(R*(S*(S*—(S*))))-(alpha),(alpha)′-(iminobis(methylene)bis-(6-fluoro-3,4-dihydro-2H-1-benzopyran-2-methanol)], the “Dissolution (in words)” value is “poor dissolution”.
